The data set is described as follows: Metabolic stability in liver microsomes, human. The format is in vitro ADME. As to the method: In this study, the metabolic stability of IDP-73152 in microsomes from mice, rats, dogs, and humans, as well as rat hepatocytes, was determined. For a microsomal incubation study, the incubation mixtures, containing mouse, rat, dog, or human liver microsomes at a protein concentration of 0.5 mg/mL, 3.3 mM MgCl2, and 1.3 mM NADPH, in a 100 mM potassium phosphate buffer (pH 7.4), were preincubated for 3 min at 37 °C. In parallel, a control incubation mixture (i.e., identical composition to that of the incubation mixture without NADPH) was also prepared for comparison. The reaction was initiated by the addition of a 10 × solution of IDP-73152 (final concentration in mixtures of 1 μM) to the incubation mixtures or the control incubation mixtures. The mixtures were incubated in a shaking water bath (37 °C, 90 rpm). Aliquots (30 μL) were collected at 0, 15, 30, and 45 min from the mixture and the reaction was terminated by the addition of a 4-fold volume of ice-cold acetonitrile to the sample. The mixture was then vortexed for 5 min and centrifuged for 10 min at 10,000× g. The supernatant was collected and stored at -80 °C until the analysis. For the hepatocyte incubation study, rat hepatocytes were freshly prepared using the two-step collagenase perfusion method with slight modifications. After the isolation, cell viability during the preparation process was first determined by a trypan blue exclusion assay prior to the stability study. The preparation was considered adequate for subsequent studies if the viability was greater than 80%. When appropriate, the hepatocytes were resuspended in Williams' media E containing 10% fetal bovine serum, 1% penicillin-streptomycin, and 0.01% insulin-transferrin-selenium (i.e., 10 mg/mL insulin, 5.5 mg/mL transferrin, and 5 mg/mL selenium) at pH 7.4. The reaction was carried out with the hepatocyte suspension prepared at 1 × 10^6 cells/mL (0.5 mL) and initiated by the addition of equal volume of IDP-73152 solution (i.e., final concentration of the compound at 1 μM in 0.5 × 10^6 cells/mL of hepatocytes) to the hepatocyte suspension. […] Assuming first-order disappearance kinetics, the slope k of the logarithmically transformed IDP-73152 concentration in the sample versus time plot was determined by the linear regression analysis of the data. The total intrinsic clearance (CLint,mic, μL/min/mg protein for microsomal incubation study and CLint,hep, μL/min/million cells for hepatocytes incubation study) was then calculated using the following equations:(4) CLint, mic=k×Volume of incubation medium (μL)/Protein in incubation medium (mg) (5) CLint,hep=k×Volume of incubation (μL)/Number of cells in incubation (×10^6) The unbound intrinsic clearance, with respect to the whole liver ([…]), was then estimated for the two cases. […]
Background: Microsomes from liver hold many membrane-bound enzymes, among them those of drug oxidation.

Regarding `CC(C)(C)[C@H](NC(=O)[C@H](CC1CCCC1)CN(O)C=O)C(=O)N1CCC(NCc2cc(F)c(F)cc2F)CC1` [IDP-73152], the CLhep predicted at 1 μM (human, liver microsomes, pH 7.4, humans, from microsomal stability data, well-stirred liver model, read-out: CLp expected in humans (converted)) was about 3.17 mL/min/kg. Moreover, under “human, microsomes, pH 7.4”, the microsomal CLint (as a rule, a measure of how fast metabolising enzymes remove a compound, apart from limits set by blood flow) at 1 μM was 31.8 ± 2.2 µL/min/mg. Further, the “hepatic ER (extraction ratio)” value (humans, from microsomal clearance, well-stirred model) was 0.159 ± 0.009. The “CLu,int,H” value (humans, scaled up to the whole liver from microsomes) turned out to be 206 ± 14 L/h.

The values above are taken from publication PMC9227536, “Prediction of Pharmacokinetics of IDP-73152 in Humans Using Physiologically-Based Pharmacokinetics” (Pharmaceutics, 2022).
